Experimental data reported in US11034672B1, “Tyrosine kinase inhibitor compositions, methods of making and methods of use” (Black Diamond Therapeutics, Inc., priority 2018, dated 2021).

Assays:
Type in all cases: cell-based
[1] = target: T1, EGFR WT (Homo sapiens, UniProt P00533); assay: Activity for inhibiting EGFR (Table A), EGFR WT; settings: read-out: EGFR WT, potency code (IC50)
[2] = target: T2, EGFR V3 (Homo sapiens, UniProt P00533, DELINS30-297G); assay: Activity for inhibiting EGFR (Table A), EGFR V3 (EGFR-Viii); settings: read-out: EGFR V3, potency code (IC50)
T2 construct: expressed in transfected cells; host or cells: BaF3 (murine pro-B), retroviral pMXs-IRES-Blasticidin

[3] = target: T3, HER2 WT (Homo sapiens, UniProt P04626); assay: Activity for inhibiting HER2 (Table B), HER2 WT
[4] = target: T4, HER2 S310F (Homo sapiens, UniProt P04626, S310F); assay: Activity for inhibiting HER2 (Table B), HER2 S310F; settings: read-out: HER2 S310F, potency code (IC50)
T4 construct: expressed in transfected cells; host or cells: BaF3 (murine pro-B)
Procedure: (§1) EC50 values were determined with the same application.

[5] = target: T1, EGFR WT; assay: BaF3 cell proliferation assay, EGFR WT (Table A); settings: potency code, 3 days, CellTiterGlo, read-out: EGFR WT (Activity for Inhibiting EGFR)
Procedure, shortened: (§2)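 Mouse BaF3 cells were retrovirally transduced (pMXs-IRES-Blasticidin, VSV-G pseudotyped virus from HEK 293T) with the human EGFR or HER2 variant, selected in 10 μg/ml Blasticidin for one week, then made IL-3 independent. EC50 values come from proliferation of these lines.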

[6] = target: T2, EGFR V3; assay: BaF3 cell proliferation assay, EGFR V3 (Table A); settings: potency code, 3 days, CellTiterGlo, read-out: EGFR V3 (Activity for Inhibiting EGFR)
Procedure, shortened: as §2

[7] = target: T3, HER2 WT; assay: BaF3 cell proliferation assay, HER2 WT (Table B); settings: potency code, 3 days, CellTiterGlo, read-out: HER2 WT (Activity for Inhibiting HER2)
[8] = target: T4, HER2 S310F; assay: BaF3 cell proliferation assay, HER2 S310F (Table B); settings: potency code, 3 days, CellTiterGlo, read-out: HER2 S310F (Activity for Inhibiting HER2)
[9] = target: T5, HER2 YVMA (Homo sapiens, UniProt P04626, INS775YVMA); assay: Activity for inhibiting HER2 (Table B), HER2 YVMA; settings: read-out: HER2 YVMA, potency code (IC50)
T5 construct: expressed in transfected cells; host or cells: BaF3 (murine pro-B)
Procedure: as §1

[10] = target: T5, HER2 YVMA; assay: BaF3 cell proliferation assay, HER2 YVMA (Table B); settings: potency code, 3 days, CellTiterGlo, read-out: HER2 YVMA (Activity for Inhibiting HER2)
[11] = Table B, read-out: HER2 WT, potency code (IC50)
[12] = text lists of compounds, read-out: IC50 value for inhibiting wild-type HER2

T2 sequence (P00533 with tags, fused parts or gaps DELINS30-297G): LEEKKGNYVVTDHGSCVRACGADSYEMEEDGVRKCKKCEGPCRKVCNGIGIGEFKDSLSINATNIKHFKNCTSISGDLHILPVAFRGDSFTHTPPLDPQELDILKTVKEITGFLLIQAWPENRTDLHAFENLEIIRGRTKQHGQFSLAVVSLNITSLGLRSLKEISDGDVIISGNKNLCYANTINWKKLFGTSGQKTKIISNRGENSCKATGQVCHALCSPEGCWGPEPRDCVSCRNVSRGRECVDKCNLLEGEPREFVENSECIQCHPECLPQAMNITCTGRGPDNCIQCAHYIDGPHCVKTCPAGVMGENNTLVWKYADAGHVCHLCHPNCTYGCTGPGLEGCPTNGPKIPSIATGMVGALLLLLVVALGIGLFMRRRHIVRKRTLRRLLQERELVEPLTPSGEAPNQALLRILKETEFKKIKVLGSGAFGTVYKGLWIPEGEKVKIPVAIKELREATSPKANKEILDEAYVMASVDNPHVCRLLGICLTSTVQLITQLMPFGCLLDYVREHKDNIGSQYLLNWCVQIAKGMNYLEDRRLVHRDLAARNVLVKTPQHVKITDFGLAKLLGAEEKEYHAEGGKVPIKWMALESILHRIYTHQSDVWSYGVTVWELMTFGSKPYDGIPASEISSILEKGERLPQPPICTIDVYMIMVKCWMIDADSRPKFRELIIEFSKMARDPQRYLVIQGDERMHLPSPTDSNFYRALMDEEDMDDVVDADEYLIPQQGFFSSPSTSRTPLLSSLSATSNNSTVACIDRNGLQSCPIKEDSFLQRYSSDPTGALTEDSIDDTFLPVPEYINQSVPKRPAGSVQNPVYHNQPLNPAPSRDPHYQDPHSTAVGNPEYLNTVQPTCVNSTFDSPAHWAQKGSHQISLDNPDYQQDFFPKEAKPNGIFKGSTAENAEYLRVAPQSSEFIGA
T5 sequence (P04626 with tags, fused parts or gaps INS775YVMA): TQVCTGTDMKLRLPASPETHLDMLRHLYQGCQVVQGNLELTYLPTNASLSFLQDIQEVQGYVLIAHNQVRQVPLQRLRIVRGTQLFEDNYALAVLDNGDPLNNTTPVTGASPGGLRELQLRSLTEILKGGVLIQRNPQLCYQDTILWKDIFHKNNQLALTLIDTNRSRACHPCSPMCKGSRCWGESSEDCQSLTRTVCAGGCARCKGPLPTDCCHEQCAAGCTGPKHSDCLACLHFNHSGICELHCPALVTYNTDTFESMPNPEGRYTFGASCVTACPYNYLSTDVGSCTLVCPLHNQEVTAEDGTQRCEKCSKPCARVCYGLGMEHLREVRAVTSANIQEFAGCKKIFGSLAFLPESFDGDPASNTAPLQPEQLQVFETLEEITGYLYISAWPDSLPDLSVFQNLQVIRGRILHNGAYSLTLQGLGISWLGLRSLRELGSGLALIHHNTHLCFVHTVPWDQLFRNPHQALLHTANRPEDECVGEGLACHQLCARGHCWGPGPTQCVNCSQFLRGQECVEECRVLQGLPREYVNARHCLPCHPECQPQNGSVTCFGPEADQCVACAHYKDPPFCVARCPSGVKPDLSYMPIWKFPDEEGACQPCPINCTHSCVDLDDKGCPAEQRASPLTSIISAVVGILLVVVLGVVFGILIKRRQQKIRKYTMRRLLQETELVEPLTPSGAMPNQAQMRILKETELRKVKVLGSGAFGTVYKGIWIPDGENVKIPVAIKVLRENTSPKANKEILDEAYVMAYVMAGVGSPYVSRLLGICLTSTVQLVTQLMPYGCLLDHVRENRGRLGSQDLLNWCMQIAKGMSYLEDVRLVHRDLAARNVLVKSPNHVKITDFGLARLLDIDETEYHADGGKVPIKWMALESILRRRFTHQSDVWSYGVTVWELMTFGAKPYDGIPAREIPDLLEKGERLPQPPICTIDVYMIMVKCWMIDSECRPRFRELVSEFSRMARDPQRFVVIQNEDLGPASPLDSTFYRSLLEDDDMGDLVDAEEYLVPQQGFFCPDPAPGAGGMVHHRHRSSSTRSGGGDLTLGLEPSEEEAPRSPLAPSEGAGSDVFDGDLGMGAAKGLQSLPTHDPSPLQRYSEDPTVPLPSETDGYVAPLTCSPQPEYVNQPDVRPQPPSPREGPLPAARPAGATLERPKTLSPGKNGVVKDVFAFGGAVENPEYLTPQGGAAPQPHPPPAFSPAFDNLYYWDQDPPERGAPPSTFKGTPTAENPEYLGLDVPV
T1 sequence (P00533 25-1210 N540K): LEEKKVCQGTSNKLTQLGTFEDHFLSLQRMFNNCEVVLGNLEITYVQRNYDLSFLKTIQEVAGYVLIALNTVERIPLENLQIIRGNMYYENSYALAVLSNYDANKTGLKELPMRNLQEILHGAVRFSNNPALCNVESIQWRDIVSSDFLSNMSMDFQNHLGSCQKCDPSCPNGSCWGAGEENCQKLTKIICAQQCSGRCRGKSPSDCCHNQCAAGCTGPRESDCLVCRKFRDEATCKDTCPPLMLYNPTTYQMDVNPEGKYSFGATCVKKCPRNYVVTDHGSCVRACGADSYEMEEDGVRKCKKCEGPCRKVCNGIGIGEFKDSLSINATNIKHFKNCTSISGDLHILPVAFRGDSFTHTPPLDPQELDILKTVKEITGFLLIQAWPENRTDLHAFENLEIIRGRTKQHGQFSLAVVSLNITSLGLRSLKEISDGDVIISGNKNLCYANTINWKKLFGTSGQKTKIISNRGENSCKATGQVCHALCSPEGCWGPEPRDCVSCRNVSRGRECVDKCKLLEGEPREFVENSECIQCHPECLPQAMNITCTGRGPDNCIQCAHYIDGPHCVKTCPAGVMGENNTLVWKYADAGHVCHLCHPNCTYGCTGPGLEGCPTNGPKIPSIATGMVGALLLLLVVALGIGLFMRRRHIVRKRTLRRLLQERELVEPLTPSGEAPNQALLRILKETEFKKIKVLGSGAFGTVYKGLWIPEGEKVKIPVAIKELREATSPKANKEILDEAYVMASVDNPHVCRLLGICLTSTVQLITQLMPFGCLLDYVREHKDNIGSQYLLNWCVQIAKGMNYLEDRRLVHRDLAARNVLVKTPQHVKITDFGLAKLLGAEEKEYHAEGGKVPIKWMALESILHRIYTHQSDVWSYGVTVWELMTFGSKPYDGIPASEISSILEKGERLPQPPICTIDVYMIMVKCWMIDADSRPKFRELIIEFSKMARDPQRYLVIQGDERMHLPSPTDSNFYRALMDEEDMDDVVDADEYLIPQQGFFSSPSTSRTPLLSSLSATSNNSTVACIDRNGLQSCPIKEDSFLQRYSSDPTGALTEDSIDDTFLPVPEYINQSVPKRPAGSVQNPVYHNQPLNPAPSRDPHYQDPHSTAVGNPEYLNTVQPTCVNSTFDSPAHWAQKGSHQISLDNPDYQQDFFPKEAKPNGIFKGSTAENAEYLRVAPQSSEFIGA
T3 sequence (P04626 23-1255): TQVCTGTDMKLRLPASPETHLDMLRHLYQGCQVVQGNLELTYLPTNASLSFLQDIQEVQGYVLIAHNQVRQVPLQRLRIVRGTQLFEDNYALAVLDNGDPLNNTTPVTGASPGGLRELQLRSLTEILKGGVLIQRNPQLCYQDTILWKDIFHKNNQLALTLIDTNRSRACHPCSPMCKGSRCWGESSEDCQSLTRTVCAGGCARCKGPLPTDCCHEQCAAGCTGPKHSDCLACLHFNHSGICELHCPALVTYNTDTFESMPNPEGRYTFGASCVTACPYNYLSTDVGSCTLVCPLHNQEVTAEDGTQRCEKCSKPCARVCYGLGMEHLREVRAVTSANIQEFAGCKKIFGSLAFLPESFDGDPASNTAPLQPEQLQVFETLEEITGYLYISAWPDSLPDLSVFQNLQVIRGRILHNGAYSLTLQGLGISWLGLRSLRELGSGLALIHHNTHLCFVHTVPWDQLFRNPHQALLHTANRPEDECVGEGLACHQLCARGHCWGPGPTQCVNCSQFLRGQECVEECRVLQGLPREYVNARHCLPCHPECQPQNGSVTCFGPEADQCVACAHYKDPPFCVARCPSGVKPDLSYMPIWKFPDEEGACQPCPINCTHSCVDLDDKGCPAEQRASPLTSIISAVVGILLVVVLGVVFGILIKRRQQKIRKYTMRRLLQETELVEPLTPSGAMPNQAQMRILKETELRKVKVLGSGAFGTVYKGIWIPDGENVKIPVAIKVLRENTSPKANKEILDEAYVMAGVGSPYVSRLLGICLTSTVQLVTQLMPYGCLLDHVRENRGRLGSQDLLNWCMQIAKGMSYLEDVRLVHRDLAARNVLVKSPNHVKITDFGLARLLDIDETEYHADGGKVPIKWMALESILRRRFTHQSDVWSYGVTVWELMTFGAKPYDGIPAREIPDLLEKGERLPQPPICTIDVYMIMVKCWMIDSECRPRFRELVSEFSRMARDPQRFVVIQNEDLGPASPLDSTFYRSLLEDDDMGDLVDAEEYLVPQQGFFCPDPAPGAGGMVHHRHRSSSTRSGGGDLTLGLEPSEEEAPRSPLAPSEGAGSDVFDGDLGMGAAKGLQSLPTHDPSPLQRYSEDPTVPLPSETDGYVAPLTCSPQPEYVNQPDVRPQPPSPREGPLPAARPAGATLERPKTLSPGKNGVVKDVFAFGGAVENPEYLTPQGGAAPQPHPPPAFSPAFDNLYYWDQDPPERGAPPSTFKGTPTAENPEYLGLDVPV

SMILES | IC50 [1] [nM] | IC50 [2] [nM] | IC50 [3, 11] [nM] | IC50 [3, 12] [nM] | IC50 [4] [nM] | IC50 [5] [nM] | IC50 [6] [nM] | IC50 [7] [nM] | IC50 [8] [nM] | IC50 [9] [nM] | IC50 [10] [nM]
CC#CC(=O)Nc1cc2c(Nc3ccc(OCc4ccccn4)c(Cl)c3)ncnc2cc1N(C)CCN1CCOCC1 [compound 4] | 200 to 300 | 50 to 100 | 20 to 30 | ≤ 50 | 50 to 100 | 200 to 300 | 50 to 100 | 20 to 30 | 50 to 100 |  | 
C=CC(=O)Nc1cc2c(Nc3ccc(OCc4cccc(F)c4)c(Cl)c3)ncnc2cc1OCCCN1CCOCC1 [compound 3] | 300 to 500 | 30 to 50 | 10 to 20 | ≤ 20 | 20 to 30 | 300 to 500 | 30 to 50 | 10 to 20 | 20 to 30 |  | 
C=CC(=O)Nc1cc2c(Nc3ccc(OCc4ccccn4)c(Cl)c3)ncnc2cc1N1CCC2(CCN(C)C2)C1 (stereo not drawn) [compound 46] | 300 to 500 | 50 to 100 | 20 to 30 | ≤ 50 | 100 to 200 | 300 to 500 | 50 to 100 | 20 to 30 | 100 to 200 |  | 
C=CC(=O)Nc1cc2c(Nc3ccc(OCc4ccccn4)c(Cl)c3)ncnc2cc1N1CCN2CCC1C2 (stereo not drawn) [compound 43] | > 1000 | 100 to 200 | 50 to 100 |  | 100 to 200 | > 1000 | 100 to 200 | 50 to 100 | 100 to 200 |  | 
C=CC(=O)Nc1cc2c(Nc3ccc(OCc4ccccn4)c(Cl)c3)ncnc2cc1N1CC(N2CCOCC2)C1 [compound 44] | 300 to 500 | 100 to 200 | 50 to 100 |  | 300 to 500 | 300 to 500 | 100 to 200 | 50 to 100 | 300 to 500 |  | 
C=CC(=O)Nc1cc2c(Nc3ccc(Oc4ccc(Cl)cc4)cc3)ncnc2cc1OCCN1CCOCC1 [compound 74] | > 1000 | 50 to 100 | 100 to 200 |  | 200 to 300 | > 1000 | 50 to 100 | 100 to 200 | 200 to 300 |  | 
C=CC(=O)Nc1cc2c(Nc3ccc(OCc4ccccn4)c(Cl)c3)ncnc2cc1N(C)CCN1CCOCC1 [compound 7] | > 1000 | 100 to 200 | 100 to 200 |  | 200 to 300 | > 1000 | 100 to 200 | 100 to 200 | 200 to 300 |  | 
C=CC(=O)Nc1cc2c(Nc3ccc(Oc4cccc(Cl)c4)cc3)ncnc2cc1OCCN1CCOCC1 [compound 37] | > 1000 | 100 to 200 | 50 to 100 |  | 50 to 100 | > 1000 | 100 to 200 | 50 to 100 | 50 to 100 |  | 
C=CC(=O)Nc1cc2c(Nc3ccc(OCc4ccccn4)c(Cl)c3)ncnc2cc1N(C)C1CCN(C)C1 (stereo not drawn) [compound 48] | > 1000 | 200 to 300 | 100 to 200 |  | 300 to 500 | > 1000 | 200 to 300 | 100 to 200 | 300 to 500 |  | 
C=CC(=O)Nc1cc2c(Nc3ccc(OCc4ccccn4)cc3F)ncnc2cc1OC1CCN(C)C1 (stereo not drawn) [compound 59] | 300 to 500 | 30 to 50 | 30 to 50 | ≤ 50 | 100 to 200 | 300 to 500 | 30 to 50 | 30 to 50 | 100 to 200 |  | 
C=CC(=O)Nc1cc2c(Nc3ccc(OCc4cccc(F)c4)c(Cl)c3)ncnc2cc1N(C)CCN(C)C [compound 1] | > 1000 | 100 to 200 | 50 to 100 |  | 500 to 1000 | > 1000 | 100 to 200 | 50 to 100 | 500 to 1000 |  | 
C=CC(=O)Nc1cc2c(Nc3ccc(OCc4ccccn4)c(Cl)c3)ncnc2cc1N(C)CCCN1CCOCC1 [compound 12] | 500 to 1000 | 100 to 200 | 50 to 100 |  | 100 to 200 | 500 to 1000 | 100 to 200 | 50 to 100 | 100 to 200 |  | 
C=CC(=O)Nc1cc2c(Nc3ccc(OCc4ccccn4)cc3)ncnc2cc1OCCn1ccnc1 [compound 9] | 500 to 1000 | 50 to 100 | 10 to 20 | ≤ 20 | 100 to 200 | 500 to 1000 | 50 to 100 | 10 to 20 | 100 to 200 |  | 
C=CC(=O)Nc1cc2c(Nc3ccc(OCc4ccccn4)c(Cl)c3)ncnc2cc1OCCN1CCC(O)C1 (stereo not drawn) [compound 30] |  | 30 to 50 | < 5 | ≤ 5 | 10 to 20 | 300 to 500 | 30 to 50 | < 5 | 10 to 20 | 100 to 200 | 100 to 200
C=CC(=O)Nc1cc2c(Nc3ccc(OCc4ccccn4)cc3)ncnc2cc1OCCN1CC2CN(C)CC2C1 (stereo not drawn) [compound 81] | 200 to 300 | 100 to 200 |  | ≤ 50 | 100 to 200 | 200 to 300 | 100 to 200 |  | 100 to 200 | > 1000 | > 1000
C=CC(=O)Nc1cc2c(Nc3ccc(OCc4ccccn4)c(Cl)c3)ncnc2cc1N1CC2CCN(C)C2C1 (stereo not drawn) [compound 49] | > 1000 | 100 to 200 | 50 to 100 |  | 100 to 200 | > 1000 | 100 to 200 | 50 to 100 | 100 to 200 |  | 
C=CC(=O)Nc1cc2c(Nc3ccc(OCc4ccccn4)cn3)ncnc2cc1OCCN1CCOCC1 [compound 58] | > 1000 | 200 to 300 | 100 to 200 |  | 300 to 500 | > 1000 | 200 to 300 | 100 to 200 | 300 to 500 |  | 
C=CC(=O)Nc1cc2c(Nc3ccc(OCc4cccc(F)c4)c(Cl)c3)ncnc2cc1N(C)CCN1CCOCC1 [compound 2] | > 1000 | 50 to 100 | 100 to 200 |  | 300 to 500 | > 1000 | 50 to 100 | 100 to 200 | 300 to 500 |  | 
C=CC(=O)Nc1cc2c(Nc3ccc(OCc4cccc(C(F)(F)F)n4)c(Cl)c3)ncnc2cc1OCCN1CCOCC1 [compound 23] | > 1000 | 100 to 200 | 100 to 200 |  | 100 to 200 | > 1000 | 100 to 200 | 100 to 200 | 100 to 200 |  | 
C=CC(=O)Nc1cc2c(Nc3ccc(OCc4ccccn4)c(Cl)c3)ncnc2cc1OC1CCNC1 (stereo not drawn) [compound 15] | 300 to 500 | 200 to 300 | 10 to 20 | ≤ 20 | 100 to 200 | 300 to 500 | 200 to 300 | 10 to 20 | 100 to 200 |  | 
C=CC(=O)Nc1cc2c(Nc3ccc(OCc4ccccn4)c(Cl)c3)ncnc2cc1OCC1CCCN1C (stereo not drawn) [compound 14] | 300 to 500 | 30 to 50 | 10 to 20 | ≤ 20 | 50 to 100 | 300 to 500 | 30 to 50 | 10 to 20 | 50 to 100 |  | 
C=CC(=O)Nc1cc2c(Nc3cc(C)c(OCc4ccccn4)cc3F)ncnc2cc1OCCN1CCOCC1 [compound 100, N-(4-((2-fluoro-5-methyl-4-(pyridin-2-ylmethoxy)phenyl)amino)-7-(2-morpholinoethoxy)quinazolin-6-yl)acrylamide] | 300 to 500 | 30 to 50 |  |  | 50 to 100 | 300 to 500 | 30 to 50 |  | 50 to 100 | 300 to 500 | 300 to 500
